# Assay results: US20120270769A1, “METHODS OF USING MACROCYCLIC INHIBITORS OF SERINE PROTEASE ENZYMES” (priority 2009, published 2012)
# Molecular target: T1, human matriptase (Homo sapiens, UniProt Q9Y5Y6)
# T1 sequence (Q9Y5Y6 1-855): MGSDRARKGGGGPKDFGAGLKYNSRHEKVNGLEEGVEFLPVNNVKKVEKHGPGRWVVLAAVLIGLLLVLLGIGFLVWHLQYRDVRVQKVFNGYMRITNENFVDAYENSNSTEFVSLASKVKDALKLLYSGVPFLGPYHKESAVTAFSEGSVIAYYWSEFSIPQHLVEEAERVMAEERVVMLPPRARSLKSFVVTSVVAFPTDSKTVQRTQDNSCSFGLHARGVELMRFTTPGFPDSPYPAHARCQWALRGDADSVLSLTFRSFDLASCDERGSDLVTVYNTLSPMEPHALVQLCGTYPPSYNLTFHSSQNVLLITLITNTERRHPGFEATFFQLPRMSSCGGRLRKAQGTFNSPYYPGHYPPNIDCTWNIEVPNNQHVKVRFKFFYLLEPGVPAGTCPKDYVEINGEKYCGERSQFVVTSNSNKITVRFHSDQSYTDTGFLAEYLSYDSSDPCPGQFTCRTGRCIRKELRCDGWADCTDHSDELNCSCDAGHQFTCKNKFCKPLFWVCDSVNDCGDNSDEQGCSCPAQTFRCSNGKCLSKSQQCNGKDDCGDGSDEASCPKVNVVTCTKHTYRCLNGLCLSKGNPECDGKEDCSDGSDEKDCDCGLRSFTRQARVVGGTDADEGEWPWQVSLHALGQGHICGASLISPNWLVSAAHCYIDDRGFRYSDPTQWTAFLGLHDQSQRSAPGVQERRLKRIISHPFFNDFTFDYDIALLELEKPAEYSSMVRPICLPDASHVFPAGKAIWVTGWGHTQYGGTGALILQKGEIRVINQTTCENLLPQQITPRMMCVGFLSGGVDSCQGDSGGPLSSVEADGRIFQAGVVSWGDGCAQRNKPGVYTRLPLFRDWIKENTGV
# Test: Assay for inhibition of matriptase (fluorogenic AMC substrate)
# Format: biochemical
# Details: calculated from velocity by nonlinear regression, competitive inhibition model (GraphPad Prism 5)
# From the text: The following describes an assay for matriptase as a representative serine protease and is based upon reported methods. (Désilets, A.; Longpré, J.-M.; Beaulieu, M.-E.; Leduc, R. FEBS Lett. 2006, 580, 2227-2232.) Similar assays are applicable and available for other serine proteases.
# Enzyme activities were monitored by measuring the release of fluorescence from AMC-coupled peptides (excitation, 360 nm; emission, 441 nm) in a FLX-800 TBE microplate reader (Bio-Tek Instruments, Winooski, Vt., USA). The purified human matriptase was active site titrated with the burst titrant 4-methylumbelliferyl-p-guanidino benzoate (MUGB). Enzymatic assays with matriptase were performed in Tris HCl 100 mM containing 500 µg/mL BSA at pH 9. Human soluble furin was expressed, purified, titrated and assayed as described in the literature (Denault, J. B.; Lazure, C.; Day, R; Leduc, R. Protein Expr. Purif. 2000, 19, 113-124.) The purified HAT protein was active-site titrated with MUGB. Assays with HAT were performed in 50 mM Tris-HCl at pH 8.6.
# Enzymes were diluted to concentrations ranging from 4 to 12.5 nM for furin, from 2 to 7 nM for matriptase and 20 pM for HAT and incubated with either 10 μM (for initial screening) […] or appropriate dilutions (for kinetic analysis), for example 0, 500, 1000, 2000 nM or 0, 250, 500, 1000, 2500, 5000 nM, of the test compound for 15 min at RT. Residual enzyme activity was measured by following the hydrolysis of a fluorogenic substrate (4 μM Boc-Arg-Val-Arg-Arg-AMC for furin, Boc-Gln-Ala-Arg-AMC for matriptase and 4 μM Boc-Val-Pro-Arg-AMC for HAT) (Bachem Bioscience, King of Prussia, Pa., USA). Saturation curves were performed in the presence of increasing concentrations of test compounds. Data from three independent experiments or more were typically averaged and residual velocities were plotted as a function of test compound concentration. Data were fitted by non-linear regression analysis to Equation (1) (Bieth, J. G. Methods Enzymol. 1995, 248, 59-84.) using the Enzfitter software (Biosoft, Ferguson, Mo., USA).
# vi/v0=1−{([E]0+[I]0+Ki(app))−(([E]0+[I]0+Ki(app))^2−4[E]0[I]0)^1/2}/2[E]0 Equation (1): […]
# where v0 and vi are the steady-state rates of substrate hydrolysis in the absence and presence of inhibitor, respectively, [E]0, the initial concentration of enzyme, [I]0, the initial concentration of inhibitor and Ki(app) the substrate-dependent equilibrium dissociation constant. The substrate-independent constant Ki was calculated using Equation (2) (Bieth, J. G. Methods Enzymol. 1995, 248, 59-84.),
# Kt=Ki(app)(1+[S]0/Km) Equation (2): […]
# The table presents results for matriptase inhibition for representative compounds of the invention.
# Ki's can be calculated from the velocity using nonlinear regression analysis. The model used is a competitive enzyme inhibition equation where KmObs=Km*(1+[I]/Ki) and Y=Vmax*X/(KmObs+X). X is the substrate concentration. Y the velocity.
row,Compound,Ki
1,C[C@@H]1C(=O)N[C@H](Cc2ccc(C(=N)N)cc2)C(=O)NCCCc2ccc(F)cc2OCCN[C@@H](C2CC2)C(=O)N1C [Compound 451],1460 nM
2,C[C@@H]1CN[C@@H](C2CC2)C(=O)N(C)[C@H](C)C(=O)N[C@H](Cc2ccc(C(=N)N)cc2)C(=O)NCCCc2ccccc2O1 [Compound 459],245 nM

# Same assay, conditions: residual matriptase velocity with test compound, substrate Boc-Gln-Ala-Arg-AMC; method gives 10 μM for initial screening; lower = more inhibition
row,Compound,Velocity (FU/min)
1,C[C@@H]1C(=O)N[C@H](Cc2ccc(C(=N)N)cc2)C(=O)NCCCc2ccc(C(=N)N)cc2OCCN[C@@H](C2CC2)C(=O)N1C [Compound 461],812 FU/min
2,C[C@@H]1C(=O)N[C@H](Cc2ccc(C(=N)N)cc2)C(=O)NCc2ccccc2Sc2ccccc2CN[C@@H](C2CC2)C(=O)N1C [Compound 475],2125 FU/min
3,C[C@@H]1C(=O)N[C@H](Cc2cccnc2)C(=O)NCCCc2ccc(F)cc2OCCN[C@@H](C2CC2)C(=O)N1C [Compound 494],2125 FU/min
4,C[C@@H]1C(=O)N[C@H](Cc2ccc(C(=N)N)cc2)C(=O)NC/C=C/c2cccc(c2)OCCN[C@@H](C2CC2)C(=O)N1C [Compound 482],2500 FU/min
5,C[C@@H]1NCCOc2cc(F)ccc2CCCNC(=O)[C@@H](Cc2ccc(C(=N)N)cc2)NC(=O)[C@@H](C)N(C)C1=O [Compound 467],2300 FU/min
6,C[C@@H]1C(=O)N[C@H](CCCNC(=N)N)C(=O)NCCCc2ccc(F)cc2OCCN[C@@H](C2CC2)C(=O)N1C [Compound 488],2250 FU/min
7,C[C@@H]1C(=O)N[C@H](Cc2ccc(C(=N)N)cc2)C(=O)NCCc2cccc(c2)CN[C@@H](C2CC2)C(=O)N1C [Compound 473],2375 FU/min
8,C[C@@H]1C(=O)N[C@H](Cc2ccc(C(=N)N)cc2)C(=O)NCCCc2ccc(F)cc2OCCN[C@@H](C2CC2)C(=O)N1C [Compound 451],1590 FU/min
9,C[C@@H]1CN[C@@H](C2CC2)C(=O)N(C)[C@H](C)C(=O)N[C@H](Cc2ccc(C(=N)N)cc2)C(=O)NCCCc2ccc(F)cc2O1 [Compound 458],812 FU/min
10,C[C@@H]1C(=O)N[C@H](Cc2ccc(C(=N)N)cc2)C(=O)NCCOc2cccc(c2)OCCN[C@@H](C2CC2)C(=O)N1C [Compound 479],2190 FU/min
11,C[C@@H]1C(=O)N[C@H](Cc2ccc(C(=N)N)cc2)C(=O)NC/C=C/c2ccccc2OCCN[C@@H](C2CC2)C(=O)N1C [Compound 465],1125 FU/min
12,C[C@@H]1C(=O)N[C@H](Cc2ccc(C(=N)N)cc2)C(=O)NCCc2ccccc2OCCN[C@@H](C2CC2)C(=O)N1C [Compound 481],1875 FU/min
13,C[C@H]1C(=O)N[C@H](Cc2ccc(C(=N)N)cc2)C(=O)NCCCc2ccc(F)cc2OCCN[C@@H](C2CC2)C(=O)N1C [Compound 455],2440 FU/min
14,C[C@@H]1C(=O)N[C@@H](Cc2ccc(C(=N)N)cc2)C(=O)NCCCc2ccc(F)cc2OCCN[C@@H](C2CC2)C(=O)N1C [Compound 454],2190 FU/min
15,C[C@@H]1C(=O)N[C@H](CCCCNC(N)=O)C(=O)NCCCc2ccc(F)cc2OCCN[C@@H](C2CC2)C(=O)N1C [Compound 492],2440 FU/min
16,C[C@@H]1CCc2ccc(F)cc2OCCN[C@@H](C2CC2)C(=O)N(C)[C@H](C)C(=O)N[C@H](Cc2ccc(C(=N)N)cc2)C(=O)N1 [Compound 457],1750 FU/min
17,C[C@@H]1C(=O)N[C@H](Cc2ccc(C(=N)N)cc2)C(=O)NCCCc2ccccc2OCCN[C@@H](C2CC2)C(=O)N1C [Compound 464],1875 FU/min
18,C[C@@H]1C(=O)N[C@H](CCC(N)=O)C(=O)NCCCc2ccc(F)cc2OCCN[C@@H](C2CC2)C(=O)N1C [Compound 490],2440 FU/min
19,C[C@@H]1C(=O)N[C@H](CCCCN)C(=O)NCCCc2ccc(F)cc2OCCN[C@@H](C2CC2)C(=O)N1C [Compound 485],2625 FU/min
20,C[C@@H]1C(=O)N[C@H](Cc2ccncc2)C(=O)NCCCc2ccc(F)cc2OCCN[C@@H](C2CC2)C(=O)N1C [Compound 495],2700 FU/min
21,C[C@@H]1C(=O)N[C@H](Cc2ccc(C(N)=O)cc2)C(=O)NCCCc2ccc(C(=N)N)cc2OCCN[C@@H](C2CC2)C(=O)N1C [Compound 499],937 FU/min
22,C[C@@H]1CN[C@@H](C2CC2)C(=O)N(C)[C@H](C)C(=O)N[C@H](Cc2ccc(C(N)=O)cc2)C(=O)NCCCc2ccccc2O1 [Compound 498],580 FU/min
23,C[C@@H]1CN[C@@H](C2CC2)C(=O)N(C)[C@H](C)C(=O)N[C@H](Cc2ccc(C(=N)N)cc2)C(=O)NCCCc2ccccc2O1 [Compound 459],140 FU/min
24,C[C@@H]1C(=O)N[C@H](CCCN)C(=O)NCCCc2ccc(F)cc2OCCN[C@@H](C2CC2)C(=O)N1C [Compound 487],2500 FU/min
25,C[C@@H]1C(=O)N[C@H](Cc2cscn2)C(=O)NCCCc2ccc(F)cc2OCCN[C@@H](C2CC2)C(=O)N1C [Compound 496],2700 FU/min
26,C[C@@H]1C(=O)N[C@H](Cc2ccc(C(=N)N)cc2)C(=O)NCCCC2CCCCC2OCCN[C@@H](C2CC2)C(=O)N1C (stereo partly drawn) [Compound 480],1875 FU/min
27,C[C@@H]1C(=O)N[C@H](CCCNC(N)=O)C(=O)NCCCc2ccc(F)cc2OCCN[C@@H](C2CC2)C(=O)N1C [Compound 491],2440 FU/min
28,C[C@@H]1C(=O)N[C@H](Cc2ccc(C(=N)N)cc2)C(=O)NCCc2ccccc2CCCCN[C@@H](C2CC2)C(=O)N1C [Compound 478],2440 FU/min
29,C[C@@H]1C(=O)N[C@H](Cc2ccc(C(=N)N)cc2)C(=O)NCCCc2ccc(F)cc2OCCN[C@H](C2CC2)C(=O)N1C [Compound 456],2250 FU/min
30,C[C@@H]1C(=O)N[C@H](Cc2c[nH]cn2)C(=O)NCCCc2ccc(F)cc2OCCN[C@@H](C2CC2)C(=O)N1C [Compound 493],2700 FU/min

# Test system: tumor metastasis
# Test: not given
# Details: cited from earlier work
row,Compound,activity in an in vivo model of tumor metastasis
1,COC(=O)NC(CCC(=O)O)(Cc1cccc(C(=N)N)c1)C(=O)NCC(=O)N[C@H](C=O)CCCNC(=N)N (stereo partly drawn) [CVS-3983],has shown activity
